This is an account of results in ChEMBL document CHEMBL4368916, “Design, Synthesis, and Biological Evaluation of Retinoic Acid-Related Orphan Receptor γt (RORγt) Agonist Structure-Based Functionality Switching Approach from In House RORγt Inverse Agonist to RORγt Agonist” (J Med Chem, 2019).

Data set [1] addresses T1, Nuclear receptor ROR-gamma (Mus musculus) (UniProt P51450).
T1 sequence (whole entry): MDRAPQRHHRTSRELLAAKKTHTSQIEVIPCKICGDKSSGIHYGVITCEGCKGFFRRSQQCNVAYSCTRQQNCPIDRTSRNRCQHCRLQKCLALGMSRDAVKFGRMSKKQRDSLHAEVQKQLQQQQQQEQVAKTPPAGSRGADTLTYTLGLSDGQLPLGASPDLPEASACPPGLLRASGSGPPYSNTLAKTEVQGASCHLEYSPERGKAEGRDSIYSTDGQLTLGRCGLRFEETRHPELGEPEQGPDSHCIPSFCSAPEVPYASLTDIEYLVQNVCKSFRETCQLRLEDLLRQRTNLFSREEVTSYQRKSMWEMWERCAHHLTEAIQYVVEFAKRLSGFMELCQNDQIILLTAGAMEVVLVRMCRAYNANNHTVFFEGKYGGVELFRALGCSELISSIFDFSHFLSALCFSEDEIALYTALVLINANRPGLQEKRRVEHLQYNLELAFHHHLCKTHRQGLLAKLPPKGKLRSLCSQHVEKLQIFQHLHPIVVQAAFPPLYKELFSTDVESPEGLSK
Description: Inverse agonist activity at RORgammat in mouse naive CD4+ T cells assessed as […] of IL17 production at 0.001 to 10 uM after 4 days by ELISA. It counts as cell-based.

The target of data set [2] is T1, Nuclear receptor ROR-gamma (Mus musculus). Description: Agonist activity at RORgammat in mouse naive CD4+ T cells assessed as induction of IL17 production at 0.1 to 3 uM after 4 days by ELISA. It counts as cell-based.
In another data set the test system is HepG2. Description: Cytotoxicity against human HepG2 cells at 100 uM. Type of data set: cell-based. The conditions noted are these: hepg2, 100 µM.
The target in a further data set is Cytochrome P450 3A4 (Homo sapiens, UniProt P08684). The data set can be described thus: Inhibition of CYP3A4 (unknown origin) at 10 uM. Type of data set: ADME.
Sequence of Cytochrome P450 3A4 (P08684 whole entry): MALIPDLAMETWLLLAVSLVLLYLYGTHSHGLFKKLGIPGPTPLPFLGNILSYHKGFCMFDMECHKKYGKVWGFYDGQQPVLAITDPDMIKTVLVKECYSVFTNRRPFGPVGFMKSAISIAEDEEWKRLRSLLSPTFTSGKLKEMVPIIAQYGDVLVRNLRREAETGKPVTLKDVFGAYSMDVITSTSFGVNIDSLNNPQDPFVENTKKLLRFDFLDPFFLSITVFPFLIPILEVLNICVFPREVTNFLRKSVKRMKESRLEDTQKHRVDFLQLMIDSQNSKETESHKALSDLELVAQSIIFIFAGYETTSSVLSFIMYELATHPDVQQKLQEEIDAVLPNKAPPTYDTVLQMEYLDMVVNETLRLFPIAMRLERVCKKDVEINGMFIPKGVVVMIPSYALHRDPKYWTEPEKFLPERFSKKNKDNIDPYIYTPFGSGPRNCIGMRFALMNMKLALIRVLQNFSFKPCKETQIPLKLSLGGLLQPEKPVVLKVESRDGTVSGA
Data set [3] is described as follows: Cmax in ICR mouse at 0.1 mg/kg, iv or 1 mg/kg, po by LC/MS/MS analysis. It counts as ADME, organism-based. The conditions noted are these: in vivo.
Data set [4] is described as follows: AUC (0 to 8 hrs) in ICR mouse at 0.1 mg/kg, iv or 1 mg/kg, po by LC/MS/MS analysis. It counts as ADME, organism-based. The note with it: in vivo.
Data set [5] can be described thus: MRT in ICR mouse at 0.1 mg/kg, iv or 1 mg/kg, po by LC/MS/MS analysis. Type of data set: ADME, organism-based. The note with it: in vivo.
A short description of data set [6]: Oral bioavailability in ICR mouse at 1 mg/kg by LC/MS/MS analysis. Type of data set: ADME, organism-based. The conditions noted are these: in vivo.

Active and inactive are the calls of the source. The calls are words filed in the database; no cut-off is given here.

`COc1ccc2c(n1)CCN(C(=O)CCCC(=O)O)[C@H]2C(=O)Nc1cc(F)c2c(c1)CCC2(C)C`: the result in data set [1] was Active.

Regarding `CCOc1ccccc1CN1CCc2cc(NC(=O)[C@H]3c4ccc(OC)nc4CCN3C(C)=O)ccc21`, the Activity result in data set [2] was “Dose-dependent effect”.

For `CCOc1ccccc1CN1CCc2cc(NC(=O)[C@H]3c4ccc(OC)nc4CCN3C(=O)CCCC(=O)O)ccc21`, the Activity entry with HepG2 is “Non-Toxic”; in data set [2], “Dose-dependent effect”. Moreover, the “inhibition (INH)” value against Cytochrome P450 3A4 was “Not Active”. This molecule also gave a Cmax in data set [3] of 227 ng/mL. Moreover, in data set [4], the AUC(0-t) turned out to be 1720 ng·h/mL. In data set [5], this molecule had a mean residence time (MRT) of 4.1 h. In data set [6], the bioavailability was 19%.
